# Test results: ChEMBL document CHEMBL1201862, “PubChem BioAssay data set” (2004)
# Several values for one entry are separate records, joined by “and”; a condition that tells them apart may be missing. Equal values may be shown once.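 The compound was tested at five concentrations on cells cultured in 96-well plates, with a 48-hour exposure period. Here, GI50 denotes the concentration required for 50% inhibition of growth.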 Activity calls are given as the source filed them. No stated cut-off is given here; in the data, active = GI50 up to about 1.1 µM and inactive = higher.
# Assays:
# Experiment in all cases: NCI tumour cell line growth inhibition, 48 h
# A549 = system: A549
# EKVX = system: EKVX
# HCT-116 = system: HCT-116
# HOP-92 = system: HOP-92
# HT-29 = system: HT-29
# IGROV-1 = system: IGROV-1
# K562 = system: K562
# KM12 = system: KM12
# MDA-MB-231 = system: MDA-MB-231
# NCI-H23 = system: NCI-H23
# OVCAR-5 = system: OVCAR-5
# SF-268 = system: SF-268
# SK-MEL-28 = system: SK-MEL-28
# SK-MEL-5 = system: SK-MEL-5
# SNB-19 = system: SNB-19
# U-251 = system: U-251
# UO-31 = system: UO-31
# NCI-H460 = system: NCI-H460
# HCC 2998 = system: HCC 2998
SMILES,GI50 (A549),GI50 (EKVX),GI50 (HCT-116),GI50 (HOP-92),GI50 (HT-29),GI50 (IGROV-1),GI50 (K562),GI50 (KM12),GI50 (MDA-MB-231),GI50 (NCI-H23),GI50 (OVCAR-5),GI50 (SF-268),GI50 (SK-MEL-28),GI50 (SK-MEL-5),GI50 (SNB-19),GI50 (U-251),GI50 (UO-31),GI50 (NCI-H460),GI50 (HCC 2998)
CCC1c2[nH]c3ccccc3c2C[C@H]2C(=O)NC(Cc3c[nH]c4ccccc34)C(=O)N12 (stereo partly specified),28 µM (inactive),32 µM (inactive),18 µM (inactive),26.5 µM (inactive),24.2 µM (inactive),24.4 µM (inactive),27.6 µM (inactive),18.9 µM (inactive),17.1 µM (inactive),25.5 µM (inactive),25.8 µM (inactive),29.7 µM (inactive),33.9 µM (inactive),17.5 µM (inactive),37.5 µM (inactive),17.5 µM (inactive),27.7 µM (inactive),–,–
Cc1ccc(C)c(NC(=O)NCc2ccc(Cl)cc2)c1,> 100 µM (inactive),97.9 µM (inactive),35.3 µM (inactive),18.3 µM (inactive),> 100 µM (inactive),41.9 µM (inactive),47.5 µM (inactive),87.3 µM (inactive),20 µM (inactive),35.7 µM (inactive),56.1 µM (inactive),38.9 µM (inactive),97.5 µM (inactive),> 70.5 µM (inactive),> 23.3 µM (inactive),17.7 µM (inactive),31 µM (inactive),> 85.3 µM (inactive),–
COC(=O)Nc1nc2cc(NS(=O)(=O)c3cccs3)ccc2[nH]1,43.9 µM (inactive),22.4 µM (inactive),18.4 µM (inactive),16.3 µM (inactive),23 µM (inactive),10.9 µM (inactive),5.53 µM (inactive),13.7 µM (inactive),31 µM (inactive),30.5 µM (inactive),37.2 µM (inactive),38.3 µM (inactive),19.3 µM (inactive),18.6 µM (inactive),23.2 µM (inactive),30.4 µM (inactive),30.1 µM (inactive),32.2 µM (inactive),–
Cn1c(C(C)(C)OC(=O)Oc2ccccc2)cnc1[N+](=O)[O-],> 100 µM (inactive),42.9 µM (inactive),92.5 µM (inactive),> 100 µM (inactive),34 µM (inactive),55.6 µM (inactive),59.2 µM (inactive),58.6 µM (inactive),26.1 µM (inactive),> 100 µM (inactive),> 100 µM (inactive),> 100 µM (inactive),> 100 µM (inactive),53.3 µM (inactive),> 100 µM (inactive),> 100 µM (inactive),> 100 µM (inactive),80.9 µM (inactive),–
CCOC(=O)CSc1nnc2cc(CN3CCCC3)c(-c3ccc(Cl)cc3)nn12,> 100 µM (inactive),> 100 µM (inactive),> 100 µM (inactive),> 100 µM (inactive),74.5 µM (inactive),> 100 µM (inactive),83.8 µM (inactive),> 100 µM (inactive),> 100 µM (inactive),> 100 µM (inactive),> 100 µM (inactive),> 100 µM (inactive),> 100 µM (inactive),> 100 µM (inactive),> 100 µM (inactive),> 100 µM (inactive),> 100 µM (inactive),48.4 µM (inactive),–
C=C1CCC2CC1C(C(=O)c1c[nH]c3ccccc13)=NC2(C)C (stereo unspecified),> 100 µM (inactive),77.3 µM (inactive),> 100 µM (inactive),–,> 100 µM (inactive),> 100 µM (inactive),92.7 µM (inactive),> 100 µM (inactive),> 100 µM (inactive),> 100 µM (inactive),> 100 µM (inactive),> 100 µM (inactive),> 100 µM (inactive),> 100 µM (inactive),> 100 µM (inactive),> 100 µM (inactive),> 100 µM (inactive),> 100 µM (inactive),> 100 µM (inactive)
N#CC(C#N)=C1CCCS(=O)(=O)c2ccccc21,> 100 µM (inactive),> 100 µM (inactive),> 100 µM (inactive),> 100 µM (inactive),> 100 µM (inactive),> 100 µM (inactive),> 100 µM (inactive),> 100 µM (inactive),> 100 µM (inactive),> 100 µM (inactive),> 100 µM (inactive),> 100 µM (inactive),> 100 µM (inactive),–,> 100 µM (inactive),> 100 µM (inactive),> 100 µM (inactive),> 100 µM (inactive),> 100 µM (inactive)
NCCCC(N)C(=O)O (stereo unspecified),> 100 µM (inactive),> 100 µM (inactive),> 100 µM (inactive),> 100 µM (inactive),> 100 µM (inactive),> 100 µM (inactive),> 100 µM (inactive),> 100 µM (inactive),> 100 µM (inactive),> 100 µM (inactive),> 100 µM (inactive),> 100 µM (inactive),> 100 µM (inactive),> 100 µM (inactive),> 100 µM (inactive),> 100 µM (inactive),> 100 µM (inactive),> 100 µM (inactive),–
Cc1cc2c(cc1C(=O)c1ccc(N)cc1)OCO2,39.6 µM (inactive),31 µM (inactive),52 µM (inactive),33.2 µM (inactive),22.9 µM (inactive),33.5 µM (inactive),24.9 µM (inactive),21.4 µM (inactive),34.1 µM (inactive),> 100 µM (inactive),27 µM (inactive),31.2 µM (inactive),–,20 µM (inactive),57.7 µM (inactive),24.9 µM (inactive),77.8 µM (inactive),33.7 µM (inactive),–
CC(=O)OCC1OC(n2c(-c3ccccc3)c(C(C)=O)c(-c3cccc4ccccc34)c(C#N)c2=S)C(OC(C)=O)C(OC(C)=O)C1OC(C)=O (stereo unspecified),> 100 µM (inactive),83.6 µM (inactive),> 100 µM (inactive),–,> 100 µM (inactive),> 100 µM (inactive),> 100 µM (inactive),> 100 µM (inactive),> 100 µM (inactive) and 54.1 µM (inactive),> 100 µM (inactive),> 100 µM (inactive),> 100 µM (inactive),> 100 µM (inactive),> 100 µM (inactive),> 100 µM (inactive),> 100 µM (inactive),< 0.01 µM (active),> 100 µM (inactive),> 100 µM (inactive)
C=C1C(=O)O[C@H]2/C=C(/C)C3=CC(=O)[C@@](C)(C[C@@H](OC(=O)/C(C)=C\C)C12)O3 (stereo partly specified),4.05 µM (inactive),–,0.377 µM (active),0.703 µM (active),0.265 µM (active),0.971 µM (active),0.154 µM (active),2.86 µM (inactive),3.05 µM (inactive),2.42 µM (inactive),2.4 µM (inactive),1.88 µM (inactive),0.708 µM (active),1.03 µM (active),–,2.43 µM (inactive),1.21 µM (inactive),2.35 µM (inactive),1.59 µM (inactive)
CN(C)CCNC(=O)c1cnn(C)c1[N+](=O)[O-],> 100 µM (inactive),> 100 µM (inactive),50.9 µM (inactive),–,33.4 µM (inactive),> 100 µM (inactive),> 100 µM (inactive),68.1 µM (inactive),> 100 µM (inactive),73.5 µM (inactive),> 100 µM (inactive),> 100 µM (inactive),> 100 µM (inactive),44.5 µM (inactive),> 100 µM (inactive),> 100 µM (inactive),> 100 µM (inactive),77.4 µM (inactive),> 100 µM (inactive)
Nc1nc2cc(CNc3ccc(C(=O)NC(CCC(=O)O)C(=O)O)cc3)ccc2nc1-c1ccccc1 (stereo unspecified),> 10 µM (inactive),> 10 µM (inactive),> 10 µM (inactive),–,> 10 µM (inactive),> 10 µM (inactive),> 10 µM (inactive),> 10 µM (inactive),> 10 µM (inactive),> 10 µM (inactive),> 10 µM (inactive),> 10 µM (inactive),> 10 µM (inactive),> 10 µM (inactive),> 10 µM (inactive),> 10 µM (inactive),> 10 µM (inactive),> 10 µM (inactive),> 10 µM (inactive)
Cc1ccc([S+]([O-])CC(CF)OCn2cc(C)c(=O)[nH]c2=O)cc1 (stereo unspecified),> 100 µM (inactive),–,> 100 µM (inactive),> 100 µM (inactive),–,> 100 µM (inactive),–,> 100 µM (inactive),> 100 µM (inactive),> 100 µM (inactive),> 100 µM (inactive),> 100 µM (inactive),> 100 µM (inactive),> 100 µM (inactive),> 100 µM (inactive),> 100 µM (inactive),> 100 µM (inactive),> 100 µM (inactive),> 100 µM (inactive)
CN1CC=C(C#CC(C)(C)O)CC1,> 37.5 µM (inactive),> 37.5 µM (inactive),> 37.5 µM (inactive),–,> 37.5 µM (inactive),> 37.5 µM (inactive),> 37.5 µM (inactive),> 37.5 µM (inactive),> 37.5 µM (inactive),> 37.5 µM (inactive),> 37.5 µM (inactive),> 37.5 µM (inactive),> 37.5 µM (inactive),> 37.5 µM (inactive),> 37.5 µM (inactive),> 37.5 µM (inactive),> 37.5 µM (inactive),> 37.5 µM (inactive),> 37.5 µM (inactive)
CCN(CC)CCC(=O)c1ccc(Oc2ccccc2)cc1,> 100 µM (inactive),20.8 µM (inactive),17.9 µM (inactive),15.8 µM (inactive),19.1 µM (inactive),17.1 µM (inactive),35.3 µM (inactive),13.1 µM (inactive),20.7 µM (inactive),25.1 µM (inactive),20.7 µM (inactive),20.8 µM (inactive),17.5 µM (inactive),–,18.9 µM (inactive),17.9 µM (inactive),–,–,17.6 µM (inactive)
